Reference: ChEMBL document CHEMBL1136564, “Sordaricin antifungal agents” (2003)
In brackets after ≈: the same amount, converted by molar mass. Activity calls are given as the source filed them. The rule behind the calls is not given here.

Tests used:
[1] = system: HEp-2; assay: In vitro cytotoxic concentration against Hep2 cells.; type: functional; conditions: Homo sapiens
[2] = In vitro therapeutic index (calculated as CC50/MIC (Candida albicans)).; type: functional
[3] = system: Candida albicans; assay: Minimum inhibitory concentration to inhibit 90 to 100% visible growth of Candida albicans; type: functional
[4] = system: Nakaseomyces glabratus; assay: Minimum inhibitory concentration required to inhibit 90 to 100% visible growth of Candida glabrata; type: functional
[5] = system: HEp-2; assay: Cytotoxic concentration against Hep2 cells; activation observed, but IC50 could not be determined; type: functional, cell-based; conditions: Homo sapiens

MIC [3] | MIC [4] | SMILES | CC50 [1] | Therapeutic index [2] | CC50 [5]
8 µg/mL (≈ 19.4 µM) | 32 µg/mL (≈ 77.6 µM) | CCCCC#CC(O)C12C[C@@H]3[C@H](C)CC[C@H]3C3(C=O)CC1C=C(C(C)C)[C@@]23C(=O)O (stereo partly drawn) | 18.3 µg/mL (≈ 44.4 µM) | 2.3 | 
< 0.06 µg/mL | 0.125 µg/mL (≈ 0.286 µM) | CC(C)C1=CC2CC3(C=O)[C@@H]4CC[C@@H](C)[C@H]4CC2(C(=O)C#CCC2CCCC2)[C@]13C(=O)O | 0.9 µg/mL (≈ 2.06 µM) | > 15 | 
1 µg/mL (≈ 2.34 µM) | 8 µg/mL (≈ 18.8 µM) | CC(C)CCC#CC(O)C12C[C@@H]3[C@H](C)CC[C@H]3C3(C=O)CC1C=C(C(C)C)[C@@]23C(=O)O (stereo partly drawn) | 15.8 µg/mL (≈ 37 µM) | 15.8 | 
1 µg/mL (≈ 2.32 µM) | 32 µg/mL (≈ 74.3 µM) | CC(C)CCCCC(O)C12C[C@@H]3[C@H](C)CC[C@H]3C3(C=O)CC1C=C(C(C)C)[C@@]23C(=O)O (stereo partly drawn) | 1.2 µg/mL (≈ 2.79 µM) | 1.2 | 
> 128 µg/mL | 16 µg/mL (≈ 37.2 µM) | CC(C)C1=CC2CC3(C=O)[C@@H]4CC[C@@H](C)[C@H]4CC2(C(=O)C#Cc2ccccc2)[C@]13C(=O)O | > 12 µg/mL | 0.09 | 
< 0.06 µg/mL | 0.25 µg/mL (≈ 0.57 µM) | CC(C)CCCC#CC(=O)C12C[C@@H]3[C@H](C)CC[C@H]3C3(C=O)CC1C=C(C(C)C)[C@@]23C(=O)O | 1.4 µg/mL (≈ 3.19 µM) | > 23.3 | 
2 µg/mL (≈ 4.67 µM) | 8 µg/mL (≈ 18.7 µM) | CC(C)C1=CC2CC3(C=O)[C@@H]4CC[C@@H](C)[C@H]4CC2(C(O)CC2CCCCC2)[C@]13C(=O)O (stereo partly drawn) | 3.1 µg/mL (≈ 7.23 µM) | 1.6 | 
16 µg/mL (≈ 39.7 µM) | 64 µg/mL (≈ 159 µM) | CC(C)CCC(O)C12C[C@@H]3[C@H](C)CC[C@H]3C3(C=O)CC1C=C(C(C)C)[C@@]23C(=O)O (stereo partly drawn) |  |  | inactive
< 0.06 µg/mL | 0.5 µg/mL (≈ 1.22 µM) | CCCCC#CC(=O)C12C[C@@H]3[C@H](C)CC[C@H]3C3(C=O)CC1C=C(C(C)C)[C@@]23C(=O)O | 3.3 µg/mL (≈ 8.04 µM) | > 55 | 
0.25 µg/mL (≈ 0.603 µM) | 4 µg/mL (≈ 9.65 µM) | CCCCCCC(=O)C12C[C@@H]3[C@H](C)CC[C@H]3C3(C=O)CC1C=C(C(C)C)[C@@]23C(=O)O | 1.5 µg/mL (≈ 3.62 µM) | 6 | 
< 0.06 µg/mL | 0.5 µg/mL (≈ 1.11 µM) | CC(C)C1=CC2CC3(C=O)[C@@H]4CC[C@@H](C)[C@H]4CC2(C(=O)C#CCC2CCCCC2)[C@]13C(=O)O | 1.4 µg/mL (≈ 3.11 µM) | > 23.3 | 
4 µg/mL (≈ 9.6 µM) | 32 µg/mL (≈ 76.8 µM) | CCCCCCC(O)C12C[C@@H]3[C@H](C)CC[C@H]3C3(C=O)CC1C=C(C(C)C)[C@@]23C(=O)O (stereo partly drawn) | 2.4 µg/mL (≈ 5.76 µM) | 0.6 | 
0.5 µg/mL (≈ 1.13 µM) | > 128 µg/mL | CC(C)C1=CC2CC3(C=O)[C@@H]4CC[C@@H](C)[C@H]4CC2(C(=O)CCC2CCCCC2)[C@]13C(=O)O | 1.8 µg/mL (≈ 4.09 µM) | 3.6 | 
0.25 µg/mL (≈ 0.552 µM) | 4 µg/mL (≈ 8.84 µM) | CC(C)C1=CC2CC3(C=O)[C@@H]4CC[C@@H](C)[C@H]4CC2(C(O)C#CCC2CCCCC2)[C@]13C(=O)O (stereo partly drawn) | 10.7 µg/mL (≈ 23.6 µM) | 42.8 | 
0.5 µg/mL (≈ 1.13 µM) | 16 µg/mL (≈ 36.1 µM) | CC(C)C1=CC2CC3(C=O)[C@@H]4CC[C@@H](C)[C@H]4CC2(C(O)CCC2CCCCC2)[C@]13C(=O)O (stereo partly drawn) | 1.5 µg/mL (≈ 3.39 µM) | 3 | 
0.5 µg/mL (≈ 1.17 µM) | 1 µg/mL (≈ 2.34 µM) | CC(C)C1=CC2CC3(C=O)[C@@H]4CC[C@@H](C)[C@H]4CC2(C(=O)CC2CCCCC2)[C@]13C(=O)O | 1.8 µg/mL (≈ 4.22 µM) | 3.6 | 
